Data: the NIST ThermoML archive (doi:10.1016/j.jct.2018.01.005)
Numbers after ± are expanded uncertainties.

Experiments:
[1] = excess molar enthalpy (molar enthalpy of mixing); xn = mol fraction of the nth substance listed; details: 100 kPa, Liquid, Flow calorimetry
[2] = 101.33 kPa, Liquid, Vibrating tube method

CC1(C)C(=O)[C@]2(C)CC[C@H]1C2 [(-)-fenchone] + CCCCCO
excess molar enthalpy [kcal/mol], [1]
Details	283.15 K	298.15 K	313.15 K	328.15 K
x1 = 0.049	0.0507 ± 0.00191	0.0559 ± 0.00215	0.0588 ± 0.00215	0.0607 ± 0.00215
x1 = 0.099	0.0966 ± 0.00311	0.108 ± 0.00359	0.115 ± 0.00382	0.118 ± 0.00382
x1 = 0.199	0.179 ± 0.0055	0.197 ± 0.00621	0.207 ± 0.00645	0.212 ± 0.00669
x1 = 0.3	0.231 ± 0.00717	0.259 ± 0.00813	0.276 ± 0.0086	0.283 ± 0.00884
x1 = 0.397	0.264 ± 0.00813	0.299 ± 0.00932	0.321 ± 0.01	0.331 ± 0.0103
x1 = 0.498	0.276 ± 0.0086	0.314 ± 0.0098	0.337 ± 0.0105	0.349 ± 0.0108
x1 = 0.596	0.269 ± 0.00837	0.306 ± 0.00956	0.329 ± 0.0103	0.341 ± 0.0105
x1 = 0.702	0.241 ± 0.00741	0.274 ± 0.0086	0.294 ± 0.00908	0.304 ± 0.00932
x1 = 0.803	0.192 ± 0.00598	0.216 ± 0.00669	0.229 ± 0.00717	0.236 ± 0.00741
x1 = 0.898	0.109 ± 0.00359	0.125 ± 0.00406	0.135 ± 0.0043	0.139 ± 0.00454
x1 = 0.949	0.0574 ± 0.00215	0.0645 ± 0.00239	0.0693 ± 0.00263	0.0719 ± 0.00263

CC1(C)C(=O)[C@]2(C)CC[C@H]1C2 [(-)-fenchone] + CCCCO
excess molar enthalpy [kcal/mol], [1]
Details	283.15 K	298.15 K	313.15 K	328.15 K
x1 = 0.05	0.0509 ± 0.00191	0.0569 ± 0.00215	0.0609 ± 0.00215	0.0636 ± 0.00239
x1 = 0.1	0.0966 ± 0.00311	0.109 ± 0.00359	0.117 ± 0.00382	0.122 ± 0.00382
x1 = 0.203	0.175 ± 0.0055	0.194 ± 0.00598	0.208 ± 0.00645	0.217 ± 0.00669
x1 = 0.3	0.222 ± 0.00693	0.25 ± 0.00765	0.269 ± 0.00837	0.282 ± 0.00884
x1 = 0.396	0.255 ± 0.00789	0.289 ± 0.00884	0.313 ± 0.0098	0.328 ± 0.0103
x1 = 0.499	0.267 ± 0.00837	0.305 ± 0.00956	0.331 ± 0.0103	0.348 ± 0.0108
x1 = 0.603	0.261 ± 0.00813	0.299 ± 0.00932	0.325 ± 0.01	0.341 ± 0.0105
x1 = 0.692	0.237 ± 0.00741	0.27 ± 0.00837	0.292 ± 0.00908	0.305 ± 0.00956
x1 = 0.805	0.184 ± 0.00574	0.208 ± 0.00645	0.222 ± 0.00693	0.23 ± 0.00717
x1 = 0.898	0.105 ± 0.00335	0.122 ± 0.00382	0.132 ± 0.0043	0.137 ± 0.0043
x1 = 0.95	0.0538 ± 0.00191	0.0617 ± 0.00239	0.0664 ± 0.00239	0.0686 ± 0.00263

CCCCO [butan-1-ol]
[2]
Details	mass density [kg/m3]
283.15 K	817.11 ± 0.41
298.15 K	805.72 ± 0.41
313.15 K	794.4 ± 0.41
328.15 K	782.11 ± 0.41

CCCCCO [pentan-1-ol]
[2]
Details	mass density [kg/m3]
283.15 K	821.79 ± 0.42
298.15 K	810.9 ± 0.42
313.15 K	799.8 ± 0.42
328.15 K	788.82 ± 0.42
